One block for each molecule: values may come before it.
Assays:
[1] = test system: IGROV1 human EOC xenografts; experiment: In vivo efficacy trial with IGROV1 EOC xenografts in SCID mice
[2] = test system: IGROV1 EOC cells; conditions: colony-forming assay; cited from earlier work
[3] = test system: IGROV1 knockdown cells; experiment: Growth inhibition in IGROV1 FRα knockdown cells; assay type: cell-based, human; conditions: up to 1000 nM drug
[4] = test system: R1–11-FR2 HeLa cells expressing FRα; experiment: Cell proliferation assay, FRα-expressing HeLa subline R1–11-FR2
[5] = test system: R1–11-PCFT4 HeLa cells expressing PCFT; experiment: Cell proliferation assay, PCFT-expressing HeLa subline R1–11-PCFT4

Structure (SMILES): Nc1nc2[nH]c(CCCc3ccc(C(=O)N[C@@H](CCC(=O)O)C(=O)O)s3)cc2c(=O)[nH]1 [Compound 1]
tumor burden range ([1]; day 60, folate-deficient diet, iv, 11 Q4dX4 95 (mg/kg)/inj, 1 Q4dX3 32 (mg/kg)/inj): 0 to 196 mg
acute or long-term toxicities ([1]; equitoxic dose levels, SCID mice): no acute or long-term toxicities other than completely reversible loss of weight
antitumor activity on standard (high folate) diet ([1]; standard folate-replete diet): ablated
weight loss or adverse symptoms on standard (high folate) diet ([1]; standard folate-replete diet): No weight losses or other adverse symptoms were observed
cell killing [2]: greater than 99%

Structure (SMILES): Nc1nc2[nH]c(CCCCc3ccc(C(=O)N[C@@H](CCC(=O)O)C(=O)O)cc3)cc2c(=O)[nH]1 [Compound 2]
growth inhibition upon FRα knockdown [3]: complete loss of growth inhibition

Structure (SMILES): Nc1nc2[nH]c(CCCCc3csc(C(=O)N[C@@H](CCC(=O)O)C(=O)O)c3)cc2c(=O)[nH]1 [Compound 5]
growth inhibition upon FRα knockdown [3]: complete loss of growth inhibition

Structure (SMILES): Nc1nc2[nH]c(CCCCc3ccc(C(=O)N[C@@H](CCC(=O)O)C(=O)O)c(F)c3)cc2c(=O)[nH]1 [Compound 8, (4-(4-(2-Amino-4-oxo-4,7-dihydro-3H-pyrrolo[2,3-d]pyrimidin-6-yl)butyl)-2-fluorobenzoyl)-L-glutamic Acid]
growth inhibition upon FRα knockdown [3]: complete loss of growth inhibition

fold IC50 below that for compound 1 ([4]; R1–11-FR2 cells): 6 fold
fold IC50 below that for compound 1 ([5]; R1–11-PCFT cells): 10 fold
Structure (SMILES): Nc1nc2[nH]c(CCCc3ccc(C(=O)N[C@@H](CCC(=O)O)C(=O)O)c(F)c3)cc2c(=O)[nH]1 [Compound 9, (4-(3-(2-Amino-4-oxo-4,7-dihydro-3H-pyrrolo[2,3-d]pyrimidin-6-yl)propyl)-2-fluorobenzoyl)-L-glutamic Acid]

Structure (SMILES): Nc1nc2[nH]c(CCCCc3cnc(C(=O)N[C@@H](CCC(=O)O)C(=O)O)c(F)c3)cc2c(=O)[nH]1 [Compound 10, (5-(4-(2-Amino-4-oxo-4,7-dihydro-3H-pyrrolo[2,3-d]pyrimidin-6-yl)butyl)-3-fluoropicolinoyl)-L-glutamic Acid]
growth inhibition upon FRα knockdown [3]: complete loss of growth inhibition

selectivity for PCFT versus RFC (IC50 R1–11-RFC2/IC50 R1–11-PCFT) ([5]; HeLa sublines): ~ 3
Structure (SMILES): Nc1nc2[nH]c(CCCc3csc(C(=O)N[C@@H](CCC(=O)O)C(=O)O)c3F)cc2c(=O)[nH]1 [Compound 12, (4-(3-(2-Amino-4-oxo-4,7-dihydro-3H-pyrrolo[2,3-d]pyrimidin-6-yl)propyl)-3-fluorothiophene-2-carbonyl)-L-glutamic Acid]
fold reduced IC50 of fluorinated versus nonfluorinated counterpart ([4]; R1–11-FR2 HeLa cells): 2–3 fold
